Measured values reported in patent publication US7812142B2, “Pentose derivatives as anti-hyperglycemic drugs” (Yissum Research Development Company of the Hebrew …, priority 2002, dated 2010).

What was measured:
[1] = system: L8 myocytes; assay: [3H]-2-deoxy-D-glucose (dGlc) uptake assay in L8 myocytes; type: cell-based
Protocol: The time-course of D-xylose effect in two types of skeletal muscle cells (L8 myocytes and C2 myotubes) was studied. L8 myocytes and C2 myotubes preconditioned in 20 mM glucose were incubated with 20 mM xylose. After 90 min the cells were washed and incubated with 20 mM glucose, and subjected to a deoxyglucose dGlc uptake assay (14).
It has shown before by the inventors of the present invention that deoxyglucose (dGlc) depresses the hexose transport system in myocytes and that a subsequent incubation with low (even no) glucose fails to reverse this effect of dGlc [Sasson, S et al (1997)]. The inventors have therefore measured the effect of D-xylose on rate of hexose transport following treatment with dGlc. In one experiment, C2 myotubes preconditioned with 2 mM glucose received fresh medium containing 2 mM dGlc. A portion of the cells were washed after 30 min and received 20 MM D-xylose or 2 mM D-glucose, and subjected to a dGlc uptake assay at different time points. In another experiment, L8 myocytes preconditioned with 2 mM glucose were washed and incubated with 2 mM xylose or 2 mM dGlc. A portion of the cells were washed again after 2 hr and incubated with 20 mM xylose, and subjected to a dGlc uptake assay at different time points.
This conclusion is also supported by the finding of the a better ability of D-xylose than the other pentoses to reverse 2-deoxy-D-glucose-induced downregulation of the hexose transport system in L8 myocytes. L8 myocytes were preconditioned with 2 mM glucose, washed and incubated with 2 mM dGlc. After 30 min a portion of the cells were washed again and incubated with 20 mM xylose, ribose, arabinose or lyxose. Cells were subjected to the dGlc uptake assay at various time points.
(§1) Uptake assay of the tritiated glucose analogue, 2-deoxy-D-glucose, is routinely performed as described in [Sasson, S. and Cerasi, E. (1986) J. Biol. Chem. 261, 16827-16833].

[2] = system: L6 myotubes; assay: dGlc uptake assay in L6 myotubes; type: cell-based, rat; settings: 60 μM inhibitor, 23.0 mM glucose (FIG. 11A); EH-40 data not shown
Protocol: FIG. 10: Western blot depicting effect of 3-O-propyl-D-xylose (EH-114), and 1,3-O-dimethylxylopyranoside (EH-101) on the total cell content and plasma membrane abundance of GLUT-4 in the absence or presence of insulin. L6 myotubes were maintained for 48 hr at 23 mM Glucose. The cells were than washed and received fresh medium containing the indicated additions and incubated for additional […]. Insulin was added during the last 30 min of incubation before the dGlc uptake assay.
FIG. 11A: Effect of LY-249002, a PI3-kinase inhibitor, on insulin, D-xylose, EH-101 and EH-114-mediated glucose uptake. L6 myotubes were treated as described in the legend to FIG. 10. The glucose concentration in the culture medium was 23.0 mM. The concentration of LY-294002 was 60 μM. At the end of incubation the cells were taken for the standard dGlc uptake assay. Mean±SEM, n=3.
GLUT-1 and GLUT-4 mediate glucose entry into L6 myotubes. It is established that GLUT-4 is translocated effectively and rapidly to the plasma membrane upon insulin treatment. The inventors looked at the effect of 3-O-propyl-D-xylose EH-114) and 1,3-O-dimethylxylopyranoside (EH-101) on the total cell content and plasma membrane abundance of these transporters in the absence or presence of insulin. L6 myotubes were maintained at 5.0 or 23.0 mM glucose for 48 hr and EH-114 and EH-101 were present during the last 24 hr. The cells were then taken for the standard [^3H]-2-deoxy-D-glucose uptake assay and for the biotinylation procedure for determining the amount of GLUT-1 and GLUT-4 in the plasma membrane. High glucose levels decreased the hexose transport rate by ˜50%. Insulin augmented the transport nearly 2-fold in both cases. EH-114 and EH-101 increased the transport rate 2-3-fold in the absence of insulin. Together with insulin the uptake rate was increased nearly 3-fold.
The inventors also tested the hypothesis that the active D-xylose derivatives augment the hexose transport capacity in L6 myotubes by translocating GLUT-4 to the plasma membrane not via the common insulin-regulated pathway. For this experiment, a selective inhibitor of the enzyme PI3-kinase, LY-249002, which is a key enzyme in the cellular transduction mechanism of insulin, was utilized. […] These findings also agree well with the longer onset of action of these derivatives as compared to the rapid action of insulin. Similar results were obtained when LY-249002 was present together with the derivatives throughout the entire incubation period.
as §1

[3] = system: glucose uptake in cultured cells; assay: In vitro glucose uptake / hexose transport in cultured cells with xylose derivatives (Table 2); type: cell-based
Protocol: Table 2 summarizes in vitro results obtained with some of these newly synthesized xylose derivatives.
as §1
All new compounds are screened and tested first in various insulin-sensitive cell cultures used routinely in the laboratory (skeletal muscle and adipose cell lines). In addition these drugs were tested in non-insulin-sensitive cells such as primary cultures of bovine and porcine vascular endothelial and smooth muscle cells. Active compounds were tested ex-vivo on isolated rat soleus muscles. All cell cultures and tissues were maintained under hyperglycemic condition prior to the addition of the test compounds. Dose-response and time-course experiments determine which of the derivatives are subsequently tested in animal models. For each potent compound the total cell content and plasma membrane abundance of GLUT-1 and GLUT-4 was determined, as described above. The same biotinylation technique was employed to determine the total and plasma membrane content of both transporters in isolated mouse or rat soleus muscles treated with potent compounds.

[4] = system: PKB; assay: PKB phosphorylation immunoblot in L6 myotubes; type: cell-based, rat; settings: 23.0 mM glucose; 100 nM insulin, 20 mM xylose, 5 mM EH-114 or 250 μM EH-40, up to 24 hrs (FIG. 11B)
Protocol: FIG. 11B: Effects of insulin D-xylose and xylose derivatives on PKB phosphorylation. L6 myotubes were maintained at 5.5 mM or 23.0 mM glucose. The latter were treated with 100 nM insulin, 20 mM xylose, 5 mM EH-114 or 250 μM EH-40 up to 24 hrs. At the indicated times treated myotubes were collected, homogenized and lysed and the soluble protein fraction was isolated. The control myotubes were collected at the end of the 24 hr incubation period. Equal amounts of proteins of the various treated myotubes were separated on SDS-PAGE and immunoblotted with a specific antibody against phospho-Axt1/PKBα (Ser473). In order to test whether xylose derivative activate insulin transduction elements downstream of PI3K, the inventors tested the state of PKB phosphorylation, as shown in FIG. 11B.

[5] = Half-life of D-xylose measured in rats; settings: rat, in vivo
[6] = system: glucose transporter; assay: Non-radioactive fluorimetric dGlc-6-P uptake assay with 10 mM dGlc; type: cell-based; settings: 10 mM dGlc in the uptake assay
Protocol: Since the standard hexose transport assay utilizes 0.1 mM dGlc in the presence of tracer amount of [^3H] dGlc, the inventors asked whether the results shown above were limited to this particular assay condition. Therefore, experiments were repeated with 10 mM dGlc in the uptake assay. […] The uptake of hexose under these assay conditions was also linear up to 25 min.

O=C[C@H](O)[C@@H](O)[C@H](O)CO [D-xylose]
reversal of 2-deoxy-D-glucose-induced downregulation of the hexose transport system ([1]; 20 mM pentose after 30 min 2 mM dGlc (FIG. 8)): better than any of the other pentoses | rate of hexose transport downregulated by dGlc ([1]; 20 mM xylose after 2 hr 2 mM dGlc (FIG. 4B)): increased the rate of hexose transport | rate of glucose transport ([1]; 20 mM xylose, cells preconditioned in 20 mM glucose (FIG. 1)): increases the rate of glucose transport | effect of PI3-kinase inhibitor LY-249002 on the substance's stimulation of hexose transport [2]: failed to affect | Fold Increase of Glucose Uptake [3]: ~2.0 fold | EC50 ([3]; EC = Effective concentration): 12 mM | ECmax ([3]; EC = Effective concentration): 20 mM | time to loss of activity after being removed ([3]; after being washed from cell cultures): 10 to 20 min | PKB phosphorylation [4]: failed to induce significant phosphorylation | half-life [5]: 30 to 60 min | competition for transport at high hexose level [6]: does not compete for transport via the glucose transporter
